One assay deals with A549. The experiment in a line: MTT screening assay, A549. In kind it is cell-based. As to conditions: Homo sapiens, 72 h incubation. From the text:
The ability of newly synthesized indole phytoalexins to suppress cell proliferation was screened in vitro on eight cancer cell lines including human colorectal carcinoma (Caco-2 and HCT116), human cervical cancer (HeLa), human breast adenocarcinoma (MCF-7, MDA-MB-231), human alveolar adenocarcinoma (A549) and human leukemic T cell lymphoma (Jurkat), and two non-cancer cell lines (MCF-10A, Cos-7).
The cell lines used for this study were Caco-2 (human colorectal adenocarcinoma cell line, American Type Culture Collection, Manassas, VA, USA (ATCC)), HCT116 (human colorectal carcinoma cells European Collection of Authenticated Cell Cultures, Salisbury, UK (ECACC)), HeLa (human cervical tumor cells, ECACC), MCF-7 (human breast tumor cells, ECACC), MDA-MB-231 (human breast tumor cells, ATCC), A549 (human lung carcinoma cells, ATCC), BLM (human melanoma lung metastases, a gift from prof. K. Smetana, Institute of Anatomy, Charles University in Prague), Jurkat (human leukemia cell line, ECACC), Cos-7 (immortalized monkey kidney fibroblasts, ATCC) and MCF-10A (human mammary epithelial cells, ATCC). Caco-2, MCF-7, BLM, Cos-7 and A549 cells were cultured in Dulbecco’s Modified Eagle’s Medium (DMEM) with high glucose and sodium pyruvate (GE Healthcare, Piscataway, NJ, USA); HCT116 lines, HeLa, MDA-MB-231 and Jurkat were cultured in RPMI-1640 medium; and MCF10A cells were cultured in high glucose DMEM/F12 (Dulbecco’s Modified Eagle’s Medium F12). The media were enriched with 10% fetal bovine serum (FBS) and a 1% solution of a mixture of antibiotics and antimycotics 1× HyClone™ (GE Healthcare, Chicago, IL, USA). DMEM/F12 medium was supplemented with epidermal growth factor (EGF) (20 ng/mL final), hydrocortisone (0.5 μg/mL final) and insulin (10 μg/mL final) (Sigma-Aldrich Chemie, Steinheim, Germany). The cells were placed in an incubator at 37 °C with humidified air containing 5% CO2.
The MTT assay is a colorimetric method used to quantify the metabolic activity of cells. MTT (3-(4,5-di-methylthiazol-2-yl)2,5-diphenyltetrazolium bromide) (Sigma-Aldrich Chemie, Steinheim, Germany) is reduced by oxidoreductases in the cytosol of cells to light-absorbing formazan, the presence of which can be measured spectrophotometrically and determines the half-maximal inhibitory concentration (IC50). A549 cells were seeded in […] culture plates at a density of 5 × 10^3 per well. […]
We also incubated the cells with chloroquine at concentrations of 5–20 µM, which was added 1 h before the addition of the test substance, and cisplatin at concentrations of 3–10 µM. […] After 24 h, the absorbance was measured at a wavelength of 540 nm using an automated Cytation™ 3 Cell Imaging Multi-Mode Reader (Biotek, Winooski, VT, USA). […]
For orientation: Tetrazolium assays rely on reduction of a dye to a coloured formazan, in cell work by metabolically active cells.

A further assay concerns Atg7. The experiment in a line: Western blot, Atg7. In kind it is cell-based, human. As to conditions: A549, 24, 48, 72 h. An excerpt: Atg7 belongs to the family of Atg (autophagy-related) proteins involved in the process of autophagy. A ubiquitin-like conjugation system is required for autophagosome formation. The Atg7 protein is an E1-like activating enzyme that ensures the conjugation reaction and is essential for successful conversion of cytosolic LC3-I to its conjugated form, LC3-II.. […] Similar results were reported earlier. Hseu et al. studied the effect of a natural chalcone, flavokawain B, on A549 lung cancer cells. […] Moreover, in curcumin-induced autophagy, up-regulation of beclin-1 has also been observed.
A549 cells were seeded on Petri dishes (55 cm^2) at a density of 1 × 10^6 and allowed to culture in the medium. After 24 h, the test substance was added, and the cells were incubated for 24, 48 and 72 h. Subsequently, the cells were lysed with ice-cold Laemli buffer solution containing glycerol, 1M Tris/HCl (pH 6.8), 20% sodium dodecyl sulphate (SDS), deionized water and mixtures of phosphatase and protease inhibitors. After lysis, the cells were sonicated, and the protein concentration in the samples was quantified using the Pierce® BCA Protein Assay Kit (Thermo Scientific, Rockford, IL, USA) and measured by an automated Cytation™ 3 Cell Imaging Multi-Mode Reader (Biotek) at a wavelength of 570 nm. […]
(A western blot detects proteins with antibodies after separation by electrophoresis.)

The test system of the next assay is Beclin-1. The experiment in a line: Western blot, Beclin-1. In kind it is cell-based, human. As to conditions: A549, all time periods, most significantly after 24 h. From the text: Beclin-1 plays a key role in the autophagy process, which is activated in cells during periods of stress. It ensures the recruitment of autophagosomal proteins to the pre-autophagosomal structure (PAS) and is part of a complex that is essential for the induction of autophagy (VSP34 complex). It also interacts with proteins from the Bcl-2 family, by which it can be inactivated or cleaved by caspases. This is considered a crosstalk between autophagy and apoptosis. […] There is no mention in the literature focusing on Beclin-1 (and even autophagy) and indole phytoalexins. However, another phytoalexin, resveratrol, has been described to stimulate autophagy in oral cancer cells. […] Later, Fan et al. confirmed the ability of resveratrol to induce autophagy associated with upregulation of Beclin-1 also in lung cancer A549 cells.
A549 cells were seeded on Petri dishes (55 cm^2) at a density of 1 × 10^6 and allowed to culture in the medium. After 24 h, the test substance was added, and the cells were incubated for 24, 48 and 72 h. […] After lysis, the cells were sonicated, and the protein concentration in the samples was quantified using the Pierce® BCA Protein Assay Kit (Thermo Scientific, Rockford, IL, USA) and measured by an automated Cytation™ 3 Cell Imaging Multi-Mode Reader (Biotek) at a wavelength of 570 nm. […]

A further assay deals with BLM. Nature of the assay: MTT screening assay, BLM. The assay is classed as cell-based. As to conditions: Homo sapiens, 72 h incubation.

The values that follow come from publication PMC9822133, “Design, Synthesis and Antiproliferative Evaluation of Bis-Indole Derivatives with a Phenyl Linker: Focus on Autophagy” (Molecules, 2022).

Each structure is given as a SMILES string.

What is called IC50 is the midpoint of a concentration-inhibition curve. A low value points to greater potency. Consider `CC(C)(C)OC(=O)n1cc(CNC(=O)Nc2ccc(NC(=O)NCc3cn(C(=O)OC(C)(C)C)c4ccccc34)cc2)c2ccccc21` [Compound 49, N,N′-(1,4-phenylene)bis{N′-[1-(tert-butoxycarbonyl)indol-3-yl]methyl (urea)}], for which the half-maximal inhibitory concentration (IC50) with A549 was 8.7 ± 0.1 µM; with BLM, > 100 µM. Also, the “levels of Atg7” value in the assay with Atg7 is reported as “significantly increased”. Moreover, the Beclin-1 expression entry with Beclin-1 was “significantly upregulated”.
